{
  "source": "patent US20140010901A1",
  "about": "“BLEOMYCIN HYDROLASE PRODUCTION PROMOTOR” (Shiseido Company, Ltd., priority 2011, published 2014)",
  "key": {"[1]": {"test_system": "bleomycin hydrolase", "experiment": "Screening for bleomycin hydrolase production promoting effects (RT-PCR, cultured human keratinocytes)", "format": "cell-based", "details": "for expression of bleomycin hydrolase in comparison with the control: 50 μg/ml, human keratinocytes, 24 hours, control 0.1% 1,3-butylene glycol, FIG. 24; for production of bleomycin hydrolase, concentration dependence: general statement in description", "description": "Human keratinocytes derived from normal foreskin (Cascade Biologics Inc., Portland, Md.) were cultured for 24 hours at […] in the presence of each of the herbal medicine extracts or pharmaceutical agents ([…] to 50 μg/ml) shown in FIG. 24 in keratinocyte growth medium consisting of MCDB medium supplemented with epidermal growth factor (0.1 ng/ml), insulin (10 μg/ml), hydrocortisone (0.5 μg/ml), bovine pituitary extract (0.4%), gentamycin (50 μg/ml) and amphotericin B (50 ng/ml). 0.1% 1,3-butylene glycol was used as a control.\nTotal RNA (500 ng) isolated from the human keratinocytes cultured in the manner described above was reverse-transcribed using random hexamers and Superscript II RNase H-transcriptase (Gibco-BRL Corp., Gaithersburg, Md.), followed by subjecting to PCR amplification using Taq DNA polymerase (Takara Corp., Kyoto, Japan) and the following primers. 40 amplification cycles were carried out consisting of 30 seconds at 94° C., 1 minute at 60° C. and 1 minute at 72° C.\nThe primers used in PCR are indicated below."}, "[2]": {"test_system": "IRF-1", "experiment": "Effect of cytokines on IRF-1 mRNA expression in cultured keratinocytes (FIG. 22)", "format": "cell-based, human", "description": "(§1) Transcription levels of BH and related factors were analyzed by quantitative real-time RT-PCR. Total RNA was extracted from cultured cells using Isogen (Nippon Gene Co., Ltd., Tokyo, Japan) in accordance with the instructions provided by the manufacturer. Reverse transcription of cDNA was carried out using SuperScript™ II (Invitrogen Corp., Carlsbad, Calif.). Real-time RT-PCR was carried out with the Light Cycler Raid Cycler System using the Light Cycler 480 SYBR Green I Master Mix (Roche Diagnostics GmbH) in accordance with the instructions provided by the manufacturer. Glyceraldehyde 3-phosphate dehydrogenase (GAPDH) was used as a housekeeping gene. Specificity of the amplified fragments was confirmed by quantitative analysis of melting curves by Light Cycler analytical software. The amounts of mRNA were standardized with respect to GAPDH mRNA, and finally indicated as a ratio to the mRNA of an untreated control.\n(§2) An investigation was conducted of the cytokine-dependent regulation of these transcription factors."}, "[3]": {"test_system": "bleomycin hydrolase", "experiment": "Effect of cytokines on bleomycin hydrolase mRNA expression, quantitative PCR (Experiment 5, FIG. 14)", "format": "cell-based, human", "details": "keratinocytes in the proliferation stage, 24 hours, IL-4 and TNFα 0.1-10 ng/ml, IFNγ 1.0-100 ng/ml", "description": "(§3) Normal human epidermal keratinocytes derived from neonatal epidermis (Kurabo Industries, Ltd., Osaka, Japan) were cultured in EpiLife medium (Cascade Biologics, Inc., Portland, Oreg.) containing low-concentration (0.03 mM) calcium and HKGS Growth Supplement (Cascade Biologics, Inc.). All cells were incubated at 37° C. in the presence of 5% CO2 and were used within 4 passages of subculturing. Cells were collected at 70% confluence, 100% confluence, 2 days after reaching confluence, and 2 days after reaching confluence in 2 mM calcium.\nThe expression level of bleomycin hydrolase in keratinocytes was measured by quantitative PCR according to the following method using Light Cycler 480 (Roche Diagnostics GmbH, Mannheim, Germany). Light Cycler FastStart DNA Master CYBR Green I was used for the reagent. 0.6 μl aliquots of each of the following bleomycin hydrolase primers and 6.8 μl of water were added to 10 μl of SYBR Green I Master Mix followed by bringing to a total volume of 20 μl and carrying out PCR for 45 cycles consisting of 15 seconds at 95° C., 20 seconds at 55° C. and 20 seconds at 72° C. The results obtained were corrected by comparing with the results for a housekeeping gene, G3PDH.\nIL-4 (final concentration: 0.1, 1.0 or 10 ng/ml), TNFα (final concentration: 0.1, 1.0 or 10 ng/ml) and IFNγ (final concentration: 1.0, 10 or 100 ng/ml) were respectively added to cultured keratinocytes in the proliferation stage, and after incubating for 24 hours, RNA was collected using Isogen. Expression of bleomycin hydrolase mRNA was measured by quantitative PCR. Based on the results shown in FIG. 14, a type of cytokine, interleukin-4 (IL-4) can be understood to down-regulate expression of bleomycin hydrolase."}, "[4]": {"test_system": "IRF-2", "experiment": "Effect of cytokines on IRF-2 mRNA expression in cultured keratinocytes (FIG. 22)", "format": "cell-based, human", "description": "as §1, §2"}, "[5]": {"test_system": "BH gene", "experiment": "Cytokine-mediated regulation of BH gene expression, real-time RT-PCR (Experiment 6, FIG. 20A)", "format": "cell-based, human", "details": "proliferating keratinocytes, 24 hours of incubation", "description": "as §3, §1\nSince BH is an NMF-producing enzyme, it has the possibility of being involved in the pathophysiology of AD. Accordingly, an investigation was conducted of the effects of Th1, Th2 and Th17 cytokines on BH gene expression. […] Similar results were obtained with differentiated keratinocytes (data not shown). In order to clarify the role of IFN-γ in the regulation of BH gene expression, a promoter assay was carried out to identify cytokine response elements. […] IFN-γ no longer suppressed promoter activity after this sequence was deleted (FIG. 20B). […]"}, "[6]": {"test_system": "BH promoter", "experiment": "BH promoter luciferase assay in transfected cultured keratinocytes (FIG. 20B)", "format": "cell-based, human", "details": "keratinocytes transfected with pGL3-BH-616 containing IRF-1/2 binding sites, 24 hours", "description": "Keratinocytes were cultured in a 12-well tissue culture plate at a density of 5×10^4 cells/well followed by transfection with 1 μg aliquots of each construct using FuGene HD Transfection Reagent (Roche Diagnostics AG, Basel, Switzerland). In order to correct for transfection efficiency, all cells were simultaneously transfected with pGL4.74 [hRluc-TK] vector (Promega Co.) containing sea pansy (Renilla) luciferase gene under the control of HSV-TK promoter. Unless specifically indicated otherwise, the cells were collected 24 hours after transfection and lysed using […] of Passive Lysis Buffer (Promega Co.) per well. Luciferase activity was analyzed using the Dual Luciferase Reporter Assay System (Promega Co.) and Auto Lumat Plus Luminoeter (Berthold Technologies GmbH, Bad Wilbad, Germany). Firefly luciferase activity was standardized for sea pansy luciferase activity. Three transfections were independently carried out for each construct and results were expressed as the mean value thereof.\nSince BH is an NMF-producing enzyme, it has the possibility of being involved in the pathophysiology of AD. Accordingly, an investigation was conducted of the effects of Th1, Th2 and Th17 cytokines on BH gene expression. […] Similar results were obtained with differentiated keratinocytes (data not shown). […]"}, "[7]": {"test_system": "Sp-1", "experiment": "Effect of cytokines on Sp-1 expression in cultured keratinocytes (FIG. 22)", "format": "cell-based, human", "details": "most effective at IL-4 10 ng/ml", "description": "as §1, §2"}, "[8]": {"test_system": "MZF-1", "experiment": "Effect of cytokines on MZF-1 expression in cultured keratinocytes (FIG. 22)", "format": "cell-based, human", "details": "most effective at IL-4 10 ng/ml", "description": "as §1, §2"}, "[9]": {"details": "only at IL-4 100 ng/ml, FIG. 22B"}},
  "note": "Entries after “also recorded” stand apart in the source; their conditions may differ.",
  "data": [
    {"compound": "O=C(O)CCCNS(=O)(=O)c1ccccc1", "note": "[benzenesulfonyl GABA, benzenesulfonyl γ-aminobutyric acid]", "values": [
      {"measurement": "expression of bleomycin hydrolase in comparison with the control", "setting": "[1]", "result": "significantly increase"},
      {"measurement": "production of bleomycin hydrolase, concentration dependence", "setting": "[1]", "result": "concentration-dependently promotes production"}
    ]},
    {"compound": "OC[C@@H](O)[C@@H](O)CO", "note": "[erythritol]", "values": [
      {"measurement": "expression of bleomycin hydrolase in comparison with the control", "setting": "[1]", "result": "significantly increase"},
      {"measurement": "production of bleomycin hydrolase, concentration dependence", "setting": "[1]", "result": "concentration-dependently promotes production"}
    ]},
    {"compound": "IFN-γ: Th1 cytokine, human IFN-γ purchased from Peprotech EC", "values": [
      {"measurement": "IRF-1 mRNA expression", "setting": "[2]; IFN-γ treatment, FIG. 22A", "result": "potent dose-dependent up-regulation"},
      {"measurement": "expression of bleomycin hydrolase mRNA", "setting": "[3]", "result": "significantly increases"},
      {"measurement": "IRF-2 expression", "setting": "[4]; IFN-γ treatment, FIG. 22A", "result": "up-regulated"},
      {"measurement": "BH mRNA expression", "setting": "[5]", "result": "dose-dependent down-regulation; also recorded: remarkably suppressed; also recorded: significantly decreases"},
      {"measurement": "BH promoter activity (luciferase)", "setting": "[6]", "result": "down-regulated"}
    ]},
    {"compound": "IL-4: Th2 cytokine, human IL-4 purchased from Peprotech EC", "values": [
      {"measurement": "expression of Sp-1", "setting": "[7]", "result": "down-regulated most effectively; also recorded: down-regulated"},
      {"measurement": "expression of IRF-1", "setting": "[2]; [9]", "result": "significantly amplified"},
      {"measurement": "expression of bleomycin hydrolase mRNA", "setting": "[3]", "result": "down-regulates"},
      {"measurement": "expression of IRF-2", "setting": "[4]; [9]", "result": "significantly amplified"},
      {"measurement": "BH mRNA expression", "setting": "[5]", "result": "did not demonstrate any direct action whatsoever"},
      {"measurement": "expression of MZF-1", "setting": "[8]", "result": "down-regulated most effectively; also recorded: down-regulated"}
    ]},
    {"compound": "IL-13: Th2 cytokine, human IL-13 manufactured by R&D Systems Inc.", "values": [
      {"measurement": "BH mRNA expression", "setting": "[5]", "result": "did not demonstrate any direct action whatsoever"}
    ]},
    {"compound": "TNFα", "values": [
      {"measurement": "expression of bleomycin hydrolase mRNA", "setting": "[3]", "result": "significantly increases"}
    ]}
  ]
}
